Reference: publication PMC9607353, “Combined In Silico and In Vitro Evidence Supporting an Aurora A Kinase Inhibitory Role of the Anti-Viral Drug Rilpivirine and an Anti-Proliferative Influence on Cancer Cells” (Pharmaceuticals, 2022)

What was measured:
Test in all cases: kinase activity assay (ADP-Glo or radioisotope-based), dose-response; Ki from IC50 by Cheng-Prusoff
Assay type in all cases: biochemical
Aurora A kinase = biological target: T1, Aurora A kinase (Homo sapiens, UniProt O14965)
T1 construct: gene AURKA
T1 sequence (O14965 1-403): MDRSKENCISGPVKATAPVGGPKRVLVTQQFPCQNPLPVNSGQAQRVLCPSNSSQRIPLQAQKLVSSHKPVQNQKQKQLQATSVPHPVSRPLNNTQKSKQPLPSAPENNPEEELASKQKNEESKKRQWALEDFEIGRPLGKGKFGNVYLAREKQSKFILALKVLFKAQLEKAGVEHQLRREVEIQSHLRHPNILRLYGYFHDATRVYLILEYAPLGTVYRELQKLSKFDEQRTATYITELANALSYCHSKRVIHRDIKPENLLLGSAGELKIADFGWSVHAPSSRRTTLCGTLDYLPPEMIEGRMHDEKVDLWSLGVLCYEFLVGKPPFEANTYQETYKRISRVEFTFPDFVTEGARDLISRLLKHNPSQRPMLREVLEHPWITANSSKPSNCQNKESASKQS

Aurora B kinase = biological target: T2, Aurora B kinase (Homo sapiens, UniProt Q96GD4)
T2 construct: gene AURKB

PIM1 kinase = PIM1 kinase (Homo sapiens, UniProt P11309)
Sequence of PIM1 kinase (P11309 whole entry): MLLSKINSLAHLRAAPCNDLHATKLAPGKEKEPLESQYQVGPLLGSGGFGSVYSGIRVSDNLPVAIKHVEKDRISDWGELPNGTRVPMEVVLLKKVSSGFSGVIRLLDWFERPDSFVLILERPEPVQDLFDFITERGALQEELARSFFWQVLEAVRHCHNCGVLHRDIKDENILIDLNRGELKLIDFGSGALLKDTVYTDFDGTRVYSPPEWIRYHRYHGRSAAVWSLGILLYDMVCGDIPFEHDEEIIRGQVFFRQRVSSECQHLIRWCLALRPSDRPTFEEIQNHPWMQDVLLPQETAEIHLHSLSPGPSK

T2 sequence (Q96GD4 whole entry): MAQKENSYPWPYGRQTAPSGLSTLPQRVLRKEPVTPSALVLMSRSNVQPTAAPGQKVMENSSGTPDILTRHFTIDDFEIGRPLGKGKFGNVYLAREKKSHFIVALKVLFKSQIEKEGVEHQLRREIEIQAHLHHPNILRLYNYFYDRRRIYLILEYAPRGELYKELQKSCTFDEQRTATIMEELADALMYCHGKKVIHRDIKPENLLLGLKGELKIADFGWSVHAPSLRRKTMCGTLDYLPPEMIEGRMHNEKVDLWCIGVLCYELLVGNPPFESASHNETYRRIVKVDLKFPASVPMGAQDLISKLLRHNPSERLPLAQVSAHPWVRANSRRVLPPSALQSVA

Q: Which Ki (Aurora A kinase) does the source give for Cc1cc(/C=C/C#N)cc(C)c1Nc1ccnc(Nc2ccc(C#N)cc2)n1 [rilpivirine, 4-[[4-[[4-[(1E)-2-cyanoethenyl]-2,6-dimethylphenyl]amino]-2-pyrimidinyl]amino]benzonitrile] here?
A: 116 nM

Q: And the Ki (Aurora B kinase)?
A: 1820 nM

Q: What about the Ki (PIM1 kinase) of the same molecule?
A: 522 nM
